Measured values: patent US9199981B2 (NOVARTIS AG, priority 2011, dated 2015)
Values belong to the compound of their own block, whether it stands above or below them.

Target: c-kit (Homo sapiens (Human), UniProt P10721)
Assay: Mo7e cell proliferation assay (SCF dependent proliferation)
Assay type: cell-based
Details: Mo7e cells stimulated with human recombinant SCF, 48 hours
Procedure: Compounds of Formula (I) and Formula (II) provided herein were assayed to measure their capacity to inhibit c-kit and PDGFR kinases using the appropriate assay described below: c-Kit inhibition was evaluated using the Mo7e cell proliferation assay, and PDGFR inhibition was evaluated using the Rat A10 cell proliferation assay and the Human TG/HA-VSMC cell proliferation assay.
Mo7e Cell Proliferation Assay
The compounds of Table 1 and Table 2 were tested for inhibition of SCF dependent proliferation using human Mo7e cells which endogenously express c-kit in a 384 well format. […] After 48 hours of incubation at 37° C., cell viability was measured by adding 25 uL of CellTiter Glo (Promega) to the cells and the luminescence was measured by a CLIPR CCD camera (Molecular Devices).
The IC50 value is given as that concentration of the test compound in question that provoke a response halfway between the baseline and maximum responses.

Sequence of c-kit (P10721 26-976): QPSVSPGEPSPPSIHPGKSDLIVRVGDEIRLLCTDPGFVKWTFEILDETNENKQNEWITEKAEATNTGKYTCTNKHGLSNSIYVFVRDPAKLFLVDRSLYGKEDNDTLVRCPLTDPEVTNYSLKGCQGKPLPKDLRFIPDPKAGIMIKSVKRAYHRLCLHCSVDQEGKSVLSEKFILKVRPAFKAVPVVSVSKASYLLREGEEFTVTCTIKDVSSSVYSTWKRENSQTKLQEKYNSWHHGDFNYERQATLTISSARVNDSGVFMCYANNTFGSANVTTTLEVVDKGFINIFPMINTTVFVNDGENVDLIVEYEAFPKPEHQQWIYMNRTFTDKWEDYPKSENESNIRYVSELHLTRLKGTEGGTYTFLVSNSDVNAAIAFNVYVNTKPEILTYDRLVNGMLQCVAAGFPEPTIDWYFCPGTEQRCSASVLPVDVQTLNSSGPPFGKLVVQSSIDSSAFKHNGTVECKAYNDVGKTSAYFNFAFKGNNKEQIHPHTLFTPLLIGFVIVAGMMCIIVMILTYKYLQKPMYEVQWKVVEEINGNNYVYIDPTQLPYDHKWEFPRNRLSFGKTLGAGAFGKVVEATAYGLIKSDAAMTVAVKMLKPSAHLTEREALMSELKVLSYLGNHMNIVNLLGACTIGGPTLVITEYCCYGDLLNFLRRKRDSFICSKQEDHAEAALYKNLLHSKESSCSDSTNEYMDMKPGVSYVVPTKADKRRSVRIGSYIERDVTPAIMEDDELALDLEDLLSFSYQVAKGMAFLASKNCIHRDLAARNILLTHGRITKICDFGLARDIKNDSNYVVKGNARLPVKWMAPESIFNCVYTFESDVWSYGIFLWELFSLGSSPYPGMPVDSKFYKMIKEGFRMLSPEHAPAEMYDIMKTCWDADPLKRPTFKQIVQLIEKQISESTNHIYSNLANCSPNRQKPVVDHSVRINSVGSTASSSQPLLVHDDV

Structure (SMILES): Cc1ccc(-c2noc(C3CC(O)(C(F)(F)F)C3)n2)cc1NC(=O)c1cnc2cc(F)ccn12 (stereo not drawn) [F94]
IC50 (1% FBS): 56 nM

Structure (SMILES): Cc1ccc(-c2noc(C3CC4(C3)OC[C@@H](C)O4)n2)cc1NC(=O)c1cnc2ccccn12 (stereo partly drawn) [F9]
IC50 (1% FBS): 52 nM

Structure (SMILES): Cn1cc(-c2ccc3ncc(C(=O)Nc4cc(-c5noc(C6CC(F)(F)C6)n5)ccc4F)n3c2)cn1 [F47]
IC50 (1% FBS): 33 nM

Structure (SMILES): Cc1ccc(-c2noc(C3CC(F)(F)C3)n2)cc1NC(=O)c1cnc2ccc(COCC(F)F)cn12 [F77]
IC50 (1% FBS): 32 nM

Structure (SMILES): Cc1ccc(-c2noc(C3(NC(=O)OC(C)(C)C)CCC3)n2)cc1NC(=O)c1cnc2ccccn12 [F136]
IC50 (1% FBS): 171 nM

Structure (SMILES): Cc1ccc(-c2noc(CC3CC3)n2)cc1NC(=O)c1cnc2ccccn12 [F105]
IC50 (1% FBS): 40 nM

Structure (SMILES): Cc1ccc(-c2noc(C3CC(C)(O)C3)n2)cc1NC(=O)c1cnc2ccccn12 (stereo not drawn) [F3]
IC50 (20% FBS (values marked *)): 164 nM

Structure (SMILES): Cc1ccc(-c2noc([C@H]3C[C@H](NC(=O)OC(C)(C)C)C3)n2)cc1NC(=O)c1cnc2ccccn12 [F127]
IC50 (1% FBS): 353 nM

Structure (SMILES): Cc1ccc(-c2noc(C3CC(=CCCO)C3)n2)cc1NC(=O)c1cnc2ccccn12 (stereo not drawn) [F32, N-(5-(5-(3-(3-hydroxypropylidene)cyclobutyl)-1,2,4-oxadiazol-3-yl)-2-methylphenyl)imidazo[1,2-a]pyridine-3-carboxamide]
IC50 (1% FBS): 25 nM

Structure (SMILES): Cc1ccc(-c2noc(C3(N)CC3)n2)cc1NC(=O)c1cnc2ccccn12 [F131]
IC50 (1% FBS): 311 nM

Structure (SMILES): COCC1(c2nc(-c3ccc(C)c(NC(=O)c4cnc5ccc(F)cn45)c3)no2)CCC1 [F98]
IC50 (1% FBS): 86 nM

Structure (SMILES): Cc1ccc(-c2noc(C3CC(F)(F)C3)n2)cc1NC(=O)c1cnc2ccc(-c3cnn(CC(=O)O)c3)cn12 [F147]
IC50 (1% FBS): 351 nM

Structure (SMILES): COC(=O)NC1(c2nc(-c3ccc(C)c(NC(=O)c4cnc5ccccn45)c3)no2)CC1 [F24]
IC50 (1% FBS): 58 nM

Structure (SMILES): Cc1ccc(-c2noc(C3CC(F)(F)C3)n2)cc1NC(=O)c1cnc2ccc(CO)cn12 [F37, N-(5-(5-(3,3-difluorocyclobutyl)-1,2,4-oxadiazol-3-yl)-2-methylphenyl)-6-(hydroxymethyl)imidazo[1,2-a]pyridine-3-carboxamide]
IC50 (1% FBS): 60 nM

More lines, now with the values ahead:

IC50 (1% FBS): 28 nM
Structure (SMILES): Cc1ccc(-c2noc(C3CC(F)C3)n2)cc1NC(=O)c1cnc2ccccn12 (stereo not drawn) [F36, N-(5-(5-(3-fluorocyclobutyl)-1,2,4-oxadiazol-3-yl)-2-methylphenyl)imidazo[1,2-a]pyridine-3-carboxamide]

IC50 (1% FBS): 26 nM
Structure (SMILES): Cc1ccc(-c2noc(C3CC(F)(F)C3)n2)cc1NC(=O)c1cnc2ccc(N3CCOCC3)cn12 [F81]

IC50 (20% FBS (values marked *)): 322 nM
Structure (SMILES): Cc1ccc(-c2nc(C3CC3)no2)cc1NC(=O)c1cnc2ccccn12 [F114]

IC50 (1% FBS): 79 nM
Structure (SMILES): Cc1ccc(-c2noc(C3CC(F)(F)C3)n2)cc1NC(=O)c1cnc2ccc(COCC(F)(F)F)cn12 [F52]

IC50 (1% FBS): 46 nM
Structure (SMILES): Cc1ccc(-c2noc([C@H]3CC3(F)F)n2)cc1NC(=O)c1cnc2ccccn12 (stereo in doubt) [F87, N-(5-(5-(2,2-difluorocyclopropyl)-1,2,4-oxadiazol-3-yl)-2-methylphenyl)imidazo[1,2-a]pyridine-3-carboxamide]

IC50 (1% FBS): 111 nM
Structure (SMILES): Cc1ccc(-c2noc(C3(F)CCC3)n2)cc1NC(=O)c1cnc2ccccn12 [F166]

IC50 (1% FBS): 69 nM
Structure (SMILES): COC(=O)NC1(c2nc(-c3ccc(C)c(NC(=O)c4cnc5ccccn45)c3)no2)CCC1 [F27]

IC50 (1% FBS): 218 nM
Structure (SMILES): Cc1ccc(-c2noc(C3CC3O)n2)cc1NC(=O)c1cnc2ccccn12 (stereo not drawn) [F159]

IC50 (1% FBS): 139 nM
Structure (SMILES): Cc1ccc(-c2noc(C3CC(F)(F)C3)n2)cc1NC(=O)c1cnc2ccc(-n3cncc3C)cn12 [F163]

IC50 (1% FBS): 49 nM
Structure (SMILES): Cc1cc(C)c(-c2noc(C3CC(F)(F)C3)n2)cc1NC(=O)c1cnc2ccccn12 [F67]

IC50 (1% FBS): > 10000 nM
Structure (SMILES): Cc1ccc(-c2noc(C3CC(F)(F)C3)n2)cc1NC(=O)c1cnc2ccc(CCC(=O)O)cn12 [F171]

IC50 (1% FBS): 49 nM
Structure (SMILES): Cc1ccc(-c2noc(C3CCC3)n2)cc1NC(=O)c1cnc2ccc(COCC(F)(F)F)cn12 [F86]

IC50 (1% FBS): 85 nM
Structure (SMILES): O=C(Nc1cc(-c2noc(C3CC(F)(F)C3)n2)ccc1F)c1cnc2ccc(-c3cnn(CCN4CCOCC4)c3)cn12 [F51]

IC50 (1% FBS): 82 nM
Structure (SMILES): Cc1ccc(-c2noc(C3CC(F)(F)C3)n2)cc1NC(=O)c1cnc2ccc(CCN3CCN(C)CC3)cn12 [F63, N-(5-(5-(3,3-difluorocyclobutyl)-1,2,4-oxadiazol-3-yl)-2-methylphenyl)-6-(2-(4-methylpiperazin-1-yl)ethyl)imidazo[1,2-a]pyridine-3-carboxamide]

IC50 (1% FBS): 15 nM
Structure (SMILES): CON=C1CC(c2nc(-c3ccc(C)c(NC(=O)c4cnc5ccccn45)c3)no2)C1 (stereo not drawn) [F7, N-(5-(5-(3-(methoxyimino)cyclobutyl)-1,2,4-oxadiazol-3-yl)-2-methylphenyl)imidazo[1,2-a]pyridine-3-carboxamide]

IC50 (1% FBS): 378 nM
Structure (SMILES): Cc1ccc(-c2noc(C3CC(F)(F)C3)n2)cc1NC(=O)c1cnc2cc(OC(F)F)ccn12 [F149]
